From patent US6875761B2 (Eisai Co., Ltd., priority 1997, dated 2005)
Structures can show the parent of a compound that is named as a salt. Values belong to the compound of their own block, whether it stands above or below them.

Tests used:
serotonin 1A receptor = molecular target: T1, serotonin 1A receptor (Rattus norvegicus, UniProt P19327); test: Binding test on [3H] 8-hydroxy-dipropylaminotetralin, hippocampus receptor fraction; set-up: species or system SD rats; conditions: rat hippocampus receptor fraction, 0.5 nM [3H] 8-OH-DPAT, room temperature 30 min; read-out: 5HT1
T1 construct: To the receptor fraction of the hippocampus were added a test compound and 0.5 nM of [^3H]; 8-hydroxy-dipropylaminotetralin; from tissue; host or cells: rat hippocampus membrane fraction
T1 sequence (P19327 1-422): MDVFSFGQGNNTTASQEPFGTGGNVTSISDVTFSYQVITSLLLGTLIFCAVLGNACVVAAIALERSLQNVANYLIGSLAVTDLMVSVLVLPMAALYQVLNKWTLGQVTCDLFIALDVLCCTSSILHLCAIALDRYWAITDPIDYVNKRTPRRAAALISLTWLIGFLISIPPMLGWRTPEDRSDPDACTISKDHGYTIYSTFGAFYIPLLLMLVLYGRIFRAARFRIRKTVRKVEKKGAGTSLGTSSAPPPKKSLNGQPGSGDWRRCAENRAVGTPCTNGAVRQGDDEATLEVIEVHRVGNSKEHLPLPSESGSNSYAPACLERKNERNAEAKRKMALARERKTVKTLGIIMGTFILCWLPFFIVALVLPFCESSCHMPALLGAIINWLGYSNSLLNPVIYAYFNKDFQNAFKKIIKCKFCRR

serotonin 2 receptor = molecular target: T2, serotonin 2 receptor (Rattus norvegicus, UniProt P14842); test: Binding test on [3H] ketanserin, cerebral cortex receptor fraction; set-up: species or system SD rats; conditions: 0.3 nM [3H] ketanserin, 37° C. 15 min, read-out: 5HT2
T2 construct: To the receptor fraction of the cerebral cortex were added a test compound and 0.3 nM of [^3H] ketanserin; from tissue; host or cells: rat cerebral cortex membrane fraction
T2 sequence (P14842 whole entry): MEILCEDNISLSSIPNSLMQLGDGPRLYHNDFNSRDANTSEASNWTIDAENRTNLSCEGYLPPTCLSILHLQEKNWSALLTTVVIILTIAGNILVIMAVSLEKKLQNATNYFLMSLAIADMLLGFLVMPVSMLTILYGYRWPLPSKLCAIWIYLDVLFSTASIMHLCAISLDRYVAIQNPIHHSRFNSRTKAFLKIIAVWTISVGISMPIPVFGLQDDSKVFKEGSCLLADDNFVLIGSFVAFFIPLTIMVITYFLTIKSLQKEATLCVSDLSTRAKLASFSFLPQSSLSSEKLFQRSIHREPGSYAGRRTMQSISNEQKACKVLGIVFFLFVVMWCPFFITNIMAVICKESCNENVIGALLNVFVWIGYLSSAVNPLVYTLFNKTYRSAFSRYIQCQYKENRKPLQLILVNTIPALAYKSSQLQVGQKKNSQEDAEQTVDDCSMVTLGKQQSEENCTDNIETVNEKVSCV

SMILES: COc1ccc(-c2cc3ccccc3c(NCCc3ccccn3)n2)cc1.Cl
melting point: 138 to 140 °C

SMILES: CCN1CCN(c2nc(-c3ccccc3O)cc3ccccc23)CC1.Cl
melting point: 228 to 230 °C

SMILES: CCN1CCN(c2nc(-c3cccc(OC)c3OC)cc3ccccc23)CC1 (as salt: hydrochloride)
melting point: 122 to 123 °C

SMILES: CCN1CCN(c2nc(-c3nc(C)c(CCO)s3)cc3ccccc23)CC1 (as salt: hydrochloride)
melting point: 149 to 154 °C

SMILES: CCN1CCN(c2nc(-c3ccn(CCO)n3)cc3ccccc23)CC1 (as salt: hydrochloride)
melting point: 134 to 140 °C

SMILES: CCN1CCN(c2nc(-c3csc(C4=CCOCC4)c3)cc3ccccc23)CC1 (as salt: hydrochloride)
melting point: 190 to 193 °C

SMILES: CCN1CCN(c2nc(-c3ccc(OCCO)cc3)cc3ccc(F)cc23)CC1 (as salt: hydrochloride)
melting point: 225 to 229 °C

SMILES: CCN1CCN(c2nc(-c3ccccc3OC)cc3ccc(OC)cc23)CC1 (as salt: hydrochloride)
melting point: 178 to 179 °C

SMILES: CCN1CCN(c2nc(-c3ccc(O)cc3)cc3sccc23)CC1 (as salt: hydrochloride)
melting point: 173 to 175 °C

SMILES: CCN1CCN(c2nc(-c3ccc(OCCO)c(OCCO)c3)cc3ccccc23)CC1 (as salt: hydrochloride)
melting point: 130 to 132 °C

SMILES: CCN1CCN(c2nc(-c3ccc(C4(CCO)CCOCC4)cc3)cc3ccccc23)CC1 (as salt: hydrochloride)
melting point: 138 to 139 °C

SMILES: CCN1CCN(c2nc(-c3ccc(C(=O)NC)cc3)cc3ccsc23)CC1 (as salt: hydrochloride)
melting point: 150.5 to 152 °C

SMILES: CCN1CCN(c2nc(-c3ccccc3OC)cc3ccccc23)CC1 (as salt: hydrochloride)
melting point: 133 to 135 °C

SMILES: CCCNC(=O)c1ccc(-c2cc3ccsc3c(N3CCN(CC)CC3)n2)cc1 [Example 449, 7-(4-ethylpiperazin-1-yl)-5-[4-(N-propylcarbamoyl)phenyl]thieno[2,3-c]pyridine dihydrochloride]
Ki (serotonin 1A receptor): 24 nM | Ki (serotonin 2 receptor): 43.8 nM

SMILES: CCN1CCN(c2nc(-c3ccc(S(=O)(=O)CC)cc3)cc3ccsc23)CC1 [Example 450, 7-(4-ethylpiperazin-1-yl)-5-(4-ethanesulfonylphenyl)thieno[2,3-c]pyridine dihydrochloride]
Ki (serotonin 1A receptor): 6.89 nM | Ki (serotonin 2 receptor): 15.2 nM

SMILES: CCCS(=O)(=O)c1ccc(-c2cc3ccsc3c(N3CCN(CC)CC3)n2)cc1 [Example 451, 7-(4-ethylpiperazin-1-yl)-5-(4-propanesulfonylphenyl)thieno[2,3-c]pyridine dihydrochloride]
Ki (serotonin 1A receptor): 7.72 nM | Ki (serotonin 2 receptor): 37.9 nM

SMILES: CCCCNC(=O)c1ccc(-c2cc3ccsc3c(N3CCN(CC)CC3)n2)cc1 [Example 452, 7-(4-ethylpiperazin-1-yl)-5-[4-(N-butylcarbamoyl)phenyl]thieno[2,3-c]pyridine dihydrochloride]
Ki (serotonin 1A receptor): 19.6 nM | Ki (serotonin 2 receptor): 7.04 nM

SMILES: CCN1CCN(c2nc(-c3ccc(C(=O)NC4CCCC4)cc3)cc3ccsc23)CC1 [Example 453, 7-(4-ethylpiperazin-1-yl)-5-[4-(N-cyclopentylcarbamoyl)phenyl]thieno[2,3-c]pyridine dihydrochloride]
Ki (serotonin 1A receptor): 22.2 nM | Ki (serotonin 2 receptor): 45.4 nM

SMILES: CCN1CCN(c2nc(-c3ccc4c(c3)CC(C)(CO)O4)cc3ccsc23)CC1 (centres unmarked) [Example 456, dihydrochloride]
Ki (serotonin 1A receptor): 63.3 nM | Ki (serotonin 2 receptor): 16.2 nM

SMILES: CCN1CCN(c2nc(-c3ccc(C(O)C4CCCCC4)cc3)cc3ccsc23)CC1 (centres unmarked) [Example 457, 7-(4-Ethylpiperazin-1-yl)-5-[4-(cyclohexylhydroxymethyl)phenyl]thieno[2,3-c]pyridine dihydrochloride]
Ki (serotonin 1A receptor): 63.3 nM | Ki (serotonin 2 receptor): 281 nM

SMILES: CCN1CCN(c2nc(-c3ccc(C(O)C4CCCC4)cc3)cc3ccsc23)CC1 (centres unmarked) [Example 458, 7-(4-ethylpiperazin-1-yl)-5-[4-(cyclopentylhydroxymethyl)phenyl]thieno[2,3-c]pyridine dihydrochloride]
Ki (serotonin 1A receptor): 75.4 nM | Ki (serotonin 2 receptor): 93.1 nM

SMILES: CCN1CCN(c2nc(-c3ccc(OC)cc3)cc3ccsc23)CC1 [Example 459, 7-(4-ethylpiperazin-1-yl)-5-(4-methoxyphenyl)thieno[2,3-c]pyridine dihydrochloride]
Ki (serotonin 1A receptor): 108 nM | Ki (serotonin 2 receptor): 60.1 nM

SMILES: CCN1CCN(c2nc(-c3ccc(OCC4OCCO4)cc3)cc3sccc23)CC1 [Example 460, 4-(4-ethylpiperazin-1-yl)-6-[4-(1,3-dioxolan-2-yl)methoxyphenyl]thieno[3,2-c]pyridine oxalate]
Ki (serotonin 1A receptor): 5.32 nM | Ki (serotonin 2 receptor): 175 nM

SMILES: CCN1CCN(c2nc(-c3ccc(OCCCO)cc3)cc3sccc23)CC1 [Example 462, 4-(4-ethylpiperazin-1-yl)-6-[4-(3-hydroxypropoxy)phenyl]thieno[3,2-c]pyridine dihydrochloride]
Ki (serotonin 1A receptor): 4.83 nM | Ki (serotonin 2 receptor): 2.84 nM

SMILES: CCN1CCN(c2nc(-c3ccc(C#CCO)cc3)cc3sccc23)CC1 [Example 464, 4-(4-ethylpiperazin-1-yl)-6-[4-(3-hydroxy-1-propynyl)phenyl]thieno[3,2-c]pyridine pyridine]
Ki (serotonin 1A receptor): 47.8 nM | Ki (serotonin 2 receptor): 1.4 nM

SMILES: CCN1CCN(c2nc(-c3ccc(CCCO)cc3)cc3sccc23)CC1 [Example 465, 4-(4-ethylpiperazin-1-yl)-6-[4-(3-hydroxypropy)phenyl]thieno[3,2-c]pyridine dihydrochloride]
Ki (serotonin 1A receptor): 6.28 nM | Ki (serotonin 2 receptor): 7.11 nM

SMILES: CCN1CCN(c2nc(-c3ccc(C#CC(C)(C)O)cc3)cc3sccc23)CC1 [Example 466, 4-(4-ethylpiperazin-1-yl)-6-[4-(3-hydroxy-3-methyl-1-butynyl)phenyl]thieno[3,2-c]pyridine oxalate]
Ki (serotonin 1A receptor): 49.8 nM | Ki (serotonin 2 receptor): 1 nM

SMILES: CCN1CCN(c2nc(-c3ccc(OC)cc3)cc3ccoc23)CC1 [Example 467, 7-(4-ethylpiperazin-1-yl)-5-(4-methoxyphenyl)furo[2,3-c]pyridine dihydrochloride]
Ki (serotonin 1A receptor): 20.6 nM | Ki (serotonin 2 receptor): 93.1 nM

Now from value to compound:

melting point: 189 to 191 °C
SMILES: CCN1CCN(c2nc(-c3cc(OC)ccc3OC)cc3ccccc23)CC1.Cl

melting point: 109 to 114 °C
SMILES: CCC1CCN(c2nc(-c3ccc(OC)cc3)cc3ccccc23)CC1.Cl

melting point: 137 to 139 °C
SMILES: COc1ccc(-c2cc3ccccc3c(N3CCOCC3)n2)cc1.Cl

melting point: 197 to 198 °C (dec.)
SMILES: CCOc1ccc(-c2cc3ccccc3c(N3CCN(CC)CC3)n2)cc1.Cl.Cl

melting point: 249 to 253 °C
SMILES: CCN1CCN(c2nc(-c3ccc(OC)cc3)cc3c(C)cccc23)CC1 (as salt: hydrochloride)

melting point: 131 to 135 °C
SMILES: CCN1CCN(c2nc(-c3ccc(OC)cc3)cc3cc(F)ccc23)CC1 (as salt: hydrochloride)

melting point: 218 to 220 °C
SMILES: CCN1CCN(c2nc(-c3ccc(OC)cc3)cc3cc(OC)ccc23)CC1 (as salt: hydrochloride)

melting point: 243 to 246 °C
SMILES: CCN1CCN(c2nc(-c3ccc(OC)cc3)cc3ccc(C)cc23)CC1 (as salt: hydrochloride)

melting point: 130 to 132 °C
SMILES: CCN1CCN(c2nc(-c3ccccc3)cc3ccc(OC)cc23)CC1 (as salt: hydrochloride)

melting point: 237 to 241 °C
SMILES: CCN1CCN(c2nc(-c3ccc(OC)cc3)cc3cccc(OC)c23)CC1 (as salt: hydrochloride)

melting point: 220 to 226 °C
SMILES: CCCN1CCN(c2nc(-c3ccc(OC)cc3)cc3ccccc23)CC1 (as salt: hydrochloride)

melting point: 220 to 225 °C
SMILES: CCCN1CCN(c2nc(-c3ccc(OCCO)cc3)cc3ccccc23)CC1 (as salt: hydrochloride)

melting point: 220 °C (dec.)
SMILES: COc1ccc(-c2cc3ccccc3c(N3CCN(C(C)C)CC3)n2)cc1 (as salt: hydrochloride)

melting point: 157 to 160 °C
SMILES: CCN1CCN(c2nc(-c3ccc(OC)cc3)cc3cnccc23)CC1 (as salt: hydrochloride)

melting point: 248 to 253 °C
SMILES: CCN1CCN(c2nc(-c3ccc(OC)cc3)cc3cccc(C)c23)CC1 (as salt: hydrochloride)

melting point: 164 to 166 °C
SMILES: COc1ccc(-c2cc3ccccc3c(N3CCN(CCC#N)CC3)n2)cc1 (as salt: hydrochloride)

melting point: 124 to 125 °C
SMILES: CCN1CCCN(c2nc(-c3ccc(OC)cc3)cc3ccccc23)CC1 (as salt: hydrochloride)

melting point: 190 to 192 °C (dec.)
SMILES: CCCCc1ccc(-c2cc3ccccc3c(N3CCN(CC)CC3)n2)cc1 (as salt: hydrochloride)

melting point: 110 to 112.5 °C (dec.)
SMILES: CCCC(=O)c1ccc(-c2cc3ccccc3c(N3CCN(CC)CC3)n2)cc1 (as salt: hydrochloride)

melting point: 200.5 to 201.5 °C (dec.)
SMILES: CCN1CCN(c2nc(-c3ccc(OC)cc3)c(Cl)c3ccccc23)CC1 (as salt: hydrochloride)

melting point: 173 to 176 °C
SMILES: CCN1CCN(c2nc(-c3ccc(OCCCN)cc3)cc3ccccc23)CC1 (as salt: hydrochloride)

melting point: 134 to 136 °C
SMILES: COc1ccc(-c2cc3ccccc3c(N3CCN(C)CC3)n2)cc1 (as salt: hydrochloride) [Example 2, 1-(1-methylpiperazin-4-yl)-3-(4-methoxyphenyl)isoquinoline]
